{
  "source": "PubChem BioAssay AID2060903",
  "about": "(Molecular Pharmacology Branch, DTP, NCI, 2025);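 further: spheroids exposed to compounds for seven days before readout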",
  "system": "377384-186-R-J1-PDC complex spheroid viability",
  "assay": "Anticancer human tumor 377384-186-R-J1-PDC patient-derived pancreatic carcinoma cell line growth inhibition [RAS]",
  "conditions": "for IC50: curve of first compound; for viability, T/C: stronger effect = lower value",
  "method_in_brief": "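Multi-cell-type spheroids: tumor cells plus HUVEC endothelial cells and mesenchymal stem cells. RAS-pathway inhibitors were combined with targeted agents, each dosed in half-log steps down from clinical Cmax, or from 10 microM when Cmax was unknown.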",
  "key": {"[1]": {"conditions": "second compound 0.0316 µM, first compound 0.0316 µM"}, "[2]": {"conditions": "second compound 0.0316 µM, first compound 0.1 µM"}, "[3]": {"conditions": "second compound 0.1 µM, first compound 0.0316 µM"}, "[4]": {"conditions": "second compound 0.1 µM, first compound 0.1 µM"}, "[5]": {"conditions": "second compound 0.316 µM, first compound 0.0316 µM"}, "[6]": {"conditions": "second compound 0.316 µM, first compound 0.1 µM"}, "[7]": {"conditions": "second compound 1 µM, first compound 0.0316 µM"}, "[8]": {"conditions": "second compound 1 µM, first compound 0.1 µM"}, "[9]": {"conditions": "second compound 3.16 µM, first compound 0.0316 µM"}, "[10]": {"conditions": "second compound 3.16 µM, first compound 0.1 µM"}, "[11]": {"conditions": "second compound 10 µM, first compound 0.0316 µM"}, "[12]": {"conditions": "second compound 10 µM, first compound 0.1 µM"}},
  "data": [
    {"smiles": "CC(C)n1nc(-c2ccc3oc(N)nc3c2)c2c(N)ncnc21", "note": "+ C#Cc1c(F)ccc2cc(O)cc(-c3ncc4c(N5CC6CCC(C5)N6)nc(OCC56CCCN5CC(F)C6)nc4c3F)c12", "values": [
      {"measurement": "IC50", "setting": "second compound 0.0316 µM", "result": "< 0.316", "unit": "nM"},
      {"measurement": "IC50", "setting": "second compound 0.1 µM", "result": "< 0.316", "unit": "nM"},
      {"measurement": "IC50", "setting": "second compound 0.316 µM", "result": "< 0.316", "unit": "nM"},
      {"measurement": "IC50", "setting": "second compound 1 µM", "result": "< 0.316", "unit": "nM"},
      {"measurement": "IC50", "setting": "second compound 3.16 µM", "result": "< 0.316", "unit": "nM"},
      {"measurement": "IC50", "setting": "second compound 10 µM", "result": "< 0.316", "unit": "nM"},
      {"measurement": "viability, T/C", "setting": "second compound 0.0316 µM, first compound 0.000316 µM", "result": 23.1, "unit": "%"},
      {"measurement": "viability, T/C", "setting": "second compound 0.0316 µM, first compound 0.001 µM", "result": 17.9, "unit": "%"},
      {"measurement": "viability, T/C", "setting": "second compound 0.0316 µM, first compound 0.00316 µM", "result": 13.3, "unit": "%"},
      {"measurement": "viability, T/C", "setting": "second compound 0.0316 µM, first compound 0.01 µM", "result": 16.1, "unit": "%"},
      {"measurement": "viability, T/C", "setting": "[1]", "result": 8.86, "unit": "%"},
      {"measurement": "viability, T/C", "setting": "[2]", "result": 7.03, "unit": "%"},
      {"measurement": "viability, T/C", "setting": "second compound 0.1 µM, first compound 0.000316 µM", "result": 9.35, "unit": "%"},
      {"measurement": "viability, T/C", "setting": "second compound 0.1 µM, first compound 0.001 µM", "result": 10.2, "unit": "%"},
      {"measurement": "viability, T/C", "setting": "second compound 0.1 µM, first compound 0.00316 µM", "result": 8.78, "unit": "%"},
      {"measurement": "viability, T/C", "setting": "second compound 0.1 µM, first compound 0.01 µM", "result": 8.07, "unit": "%"},
      {"measurement": "viability, T/C", "setting": "[3]", "result": 4.39, "unit": "%"},
      {"measurement": "viability, T/C", "setting": "[4]", "result": 3.64, "unit": "%"},
      {"measurement": "viability, T/C", "setting": "second compound 0.316 µM, first compound 0.000316 µM", "result": 4.61, "unit": "%"},
      {"measurement": "viability, T/C", "setting": "second compound 0.316 µM, first compound 0.001 µM", "result": 4.79, "unit": "%"},
      {"measurement": "viability, T/C", "setting": "second compound 0.316 µM, first compound 0.00316 µM", "result": 3.5, "unit": "%"},
      {"measurement": "viability, T/C", "setting": "second compound 0.316 µM, first compound 0.01 µM", "result": 3.8, "unit": "%"},
      {"measurement": "viability, T/C", "setting": "[5]", "result": 2.4, "unit": "%"},
      {"measurement": "viability, T/C", "setting": "[6]", "result": 2.03, "unit": "%"},
      {"measurement": "viability, T/C", "setting": "second compound 1 µM, first compound 0.000316 µM", "result": 2.88, "unit": "%"},
      {"measurement": "viability, T/C", "setting": "second compound 1 µM, first compound 0.001 µM", "result": 2.78, "unit": "%"},
      {"measurement": "viability, T/C", "setting": "second compound 1 µM, first compound 0.00316 µM", "result": 2.19, "unit": "%"},
      {"measurement": "viability, T/C", "setting": "second compound 1 µM, first compound 0.01 µM", "result": 2.05, "unit": "%"},
      {"measurement": "viability, T/C", "setting": "[7]", "result": 1.53, "unit": "%"},
      {"measurement": "viability, T/C", "setting": "[8]", "result": 1.23, "unit": "%"},
      {"measurement": "viability, T/C", "setting": "second compound 3.16 µM, first compound 0.000316 µM", "result": 1.79, "unit": "%"},
      {"measurement": "viability, T/C", "setting": "second compound 3.16 µM, first compound 0.001 µM", "result": 2.07, "unit": "%"},
      {"measurement": "viability, T/C", "setting": "second compound 3.16 µM, first compound 0.00316 µM", "result": 2.15, "unit": "%"},
      {"measurement": "viability, T/C", "setting": "second compound 3.16 µM, first compound 0.01 µM", "result": 1.84, "unit": "%"},
      {"measurement": "viability, T/C", "setting": "[9]", "result": 1.11, "unit": "%"},
      {"measurement": "viability, T/C", "setting": "[10]", "result": 0.65, "unit": "%"},
      {"measurement": "viability, T/C", "setting": "second compound 10 µM, first compound 0.000316 µM", "result": 1.04, "unit": "%"},
      {"measurement": "viability, T/C", "setting": "second compound 10 µM, first compound 0.001 µM", "result": 0.81, "unit": "%"},
      {"measurement": "viability, T/C", "setting": "second compound 10 µM, first compound 0.00316 µM", "result": 0.8, "unit": "%"},
      {"measurement": "viability, T/C", "setting": "second compound 10 µM, first compound 0.01 µM", "result": 0.63, "unit": "%"},
      {"measurement": "viability, T/C", "setting": "[11]", "result": 0.95, "unit": "%"},
      {"measurement": "viability, T/C", "setting": "[12]", "result": 0.15, "unit": "%"}
    ]},
    {"smiles": "Cc1nc(N2CCC3(CC2)COC(C)C3N)c(CO)nc1Sc1ccnc(N)c1Cl", "note": "(centres undefined) + C#Cc1c(F)ccc2cc(O)cc(-c3ncc4c(N5CC6CCC(C5)N6)nc(OCC56CCCN5CC(F)C6)nc4c3F)c12", "values": [
      {"measurement": "IC50", "setting": "second compound 0.0316 µM", "result": "< 31.6", "unit": "nM"},
      {"measurement": "IC50", "setting": "second compound 0.1 µM", "result": "< 31.6", "unit": "nM"},
      {"measurement": "IC50", "setting": "second compound 0.316 µM", "result": "< 31.6", "unit": "nM"},
      {"measurement": "IC50", "setting": "second compound 1 µM", "result": "< 31.6", "unit": "nM"},
      {"measurement": "IC50", "setting": "second compound 3.16 µM", "result": "< 31.6", "unit": "nM"},
      {"measurement": "IC50", "setting": "second compound 10 µM", "result": "< 31.6", "unit": "nM"},
      {"measurement": "viability, T/C", "setting": "[1]", "result": 12.6, "unit": "%"},
      {"measurement": "viability, T/C", "setting": "[2]", "result": 5.6, "unit": "%"},
      {"measurement": "viability, T/C", "setting": "second compound 0.0316 µM, first compound 0.316 µM", "result": 3.15, "unit": "%"},
      {"measurement": "viability, T/C", "setting": "second compound 0.0316 µM, first compound 1 µM", "result": 1.95, "unit": "%"},
      {"measurement": "viability, T/C", "setting": "second compound 0.0316 µM, first compound 3.16 µM", "result": 1.57, "unit": "%"},
      {"measurement": "viability, T/C", "setting": "second compound 0.0316 µM, first compound 10 µM", "result": 0.92, "unit": "%"},
      {"measurement": "viability, T/C", "setting": "[3]", "result": 5.2, "unit": "%"},
      {"measurement": "viability, T/C", "setting": "[4]", "result": 3.07, "unit": "%"},
      {"measurement": "viability, T/C", "setting": "second compound 0.1 µM, first compound 0.316 µM", "result": 1.59, "unit": "%"},
      {"measurement": "viability, T/C", "setting": "second compound 0.1 µM, first compound 1 µM", "result": 0.92, "unit": "%"},
      {"measurement": "viability, T/C", "setting": "second compound 0.1 µM, first compound 3.16 µM", "result": 0.97, "unit": "%"},
      {"measurement": "viability, T/C", "setting": "second compound 0.1 µM, first compound 10 µM", "result": 0.63, "unit": "%"},
      {"measurement": "viability, T/C", "setting": "[5]", "result": 2.68, "unit": "%"},
      {"measurement": "viability, T/C", "setting": "[6]", "result": 1.49, "unit": "%"},
      {"measurement": "viability, T/C", "setting": "second compound 0.316 µM, first compound 0.316 µM", "result": 0.84, "unit": "%"},
      {"measurement": "viability, T/C", "setting": "second compound 0.316 µM, first compound 1 µM", "result": 0.98, "unit": "%"},
      {"measurement": "viability, T/C", "setting": "second compound 0.316 µM, first compound 3.16 µM", "result": 0.78, "unit": "%"},
      {"measurement": "viability, T/C", "setting": "second compound 0.316 µM, first compound 10 µM", "result": 0.67, "unit": "%"},
      {"measurement": "viability, T/C", "setting": "[7]", "result": 1.74, "unit": "%"},
      {"measurement": "viability, T/C", "setting": "[8]", "result": 1.54, "unit": "%"},
      {"measurement": "viability, T/C", "setting": "second compound 1 µM, first compound 0.316 µM", "result": 1.31, "unit": "%"},
      {"measurement": "viability, T/C", "setting": "second compound 1 µM, first compound 1 µM", "result": 0.99, "unit": "%"},
      {"measurement": "viability, T/C", "setting": "second compound 1 µM, first compound 3.16 µM", "result": 0.81, "unit": "%"},
      {"measurement": "viability, T/C", "setting": "second compound 1 µM, first compound 10 µM", "result": 0.51, "unit": "%"},
      {"measurement": "viability, T/C", "setting": "[9]", "result": 1.99, "unit": "%"},
      {"measurement": "viability, T/C", "setting": "[10]", "result": 1.51, "unit": "%"},
      {"measurement": "viability, T/C", "setting": "second compound 3.16 µM, first compound 0.316 µM", "result": 1.34, "unit": "%"},
      {"measurement": "viability, T/C", "setting": "second compound 3.16 µM, first compound 1 µM", "result": 0.77, "unit": "%"},
      {"measurement": "viability, T/C", "setting": "second compound 3.16 µM, first compound 3.16 µM", "result": 0.8, "unit": "%"},
      {"measurement": "viability, T/C", "setting": "second compound 3.16 µM, first compound 10 µM", "result": 0.33, "unit": "%"},
      {"measurement": "viability, T/C", "setting": "[11]", "result": 1.85, "unit": "%"},
      {"measurement": "viability, T/C", "setting": "[12]", "result": 0.91, "unit": "%"},
      {"measurement": "viability, T/C", "setting": "second compound 10 µM, first compound 0.316 µM", "result": 0.69, "unit": "%"},
      {"measurement": "viability, T/C", "setting": "second compound 10 µM, first compound 1 µM", "result": 0.44, "unit": "%"},
      {"measurement": "viability, T/C", "setting": "second compound 10 µM, first compound 3.16 µM", "result": 0.38, "unit": "%"},
      {"measurement": "viability, T/C", "setting": "second compound 10 µM, first compound 10 µM", "result": 0.14, "unit": "%"}
    ]}
  ]
}
